Patent publication US20250197375A1, “PYRIMIDINES AND METHODS OF THEIR USE” (Kineta, Inc., priority 2021, published 2025)

Molecular target: PIKfyve (Homo sapiens (Human), UniProt Q9Y2I7)
Test: PIKfyve EEA1 Assay (endosomal vesicle enlargement, high content imaging in U2OS cells)
Format: cell-based
Details: 3 hours of treatment, activity relative to maximal APY0201 activity
Procedure: PIKfyve EEA1 Assay. Genetic or pharmacological disruption of PIKfyve activity results in enlargement of endosomal vesicles. This enlargement was utilized as a surrogate readout of PIKFyve inhibition for routine triage of PIKfyve inhibitors. U2OS cells grown in 96-well assay plates were treated with compound diluted in DMEM media containing 10% fetal bovine serum. After 3 hours of treatment, cells were fixed with paraformaldehyde, permeabilized with 0.2% Triton-X in phosphate buffered saline and stained against EEA1. During the secondary antibody staining, cells were also stained with CellMask™ Deep Red and Hoechst to detect cytoplasms and nuclei respectively. Endosomal structures were visualized using a high content imager at 40× magnification. Images were analyzed using a linear classifier algorithm integrating EEA1 spot size, intensity and texture trained on images of cells treated with the potent reference compound APY0201. Compound activity was calculated by subtracting the DMSO signal and calculating percentage activity relative to maximal APY0201 activity. IC50 values were then calculated from concentration versus percent inhibition data by logistic regression.

Sequence of PIKfyve (Q9Y2I7 whole entry): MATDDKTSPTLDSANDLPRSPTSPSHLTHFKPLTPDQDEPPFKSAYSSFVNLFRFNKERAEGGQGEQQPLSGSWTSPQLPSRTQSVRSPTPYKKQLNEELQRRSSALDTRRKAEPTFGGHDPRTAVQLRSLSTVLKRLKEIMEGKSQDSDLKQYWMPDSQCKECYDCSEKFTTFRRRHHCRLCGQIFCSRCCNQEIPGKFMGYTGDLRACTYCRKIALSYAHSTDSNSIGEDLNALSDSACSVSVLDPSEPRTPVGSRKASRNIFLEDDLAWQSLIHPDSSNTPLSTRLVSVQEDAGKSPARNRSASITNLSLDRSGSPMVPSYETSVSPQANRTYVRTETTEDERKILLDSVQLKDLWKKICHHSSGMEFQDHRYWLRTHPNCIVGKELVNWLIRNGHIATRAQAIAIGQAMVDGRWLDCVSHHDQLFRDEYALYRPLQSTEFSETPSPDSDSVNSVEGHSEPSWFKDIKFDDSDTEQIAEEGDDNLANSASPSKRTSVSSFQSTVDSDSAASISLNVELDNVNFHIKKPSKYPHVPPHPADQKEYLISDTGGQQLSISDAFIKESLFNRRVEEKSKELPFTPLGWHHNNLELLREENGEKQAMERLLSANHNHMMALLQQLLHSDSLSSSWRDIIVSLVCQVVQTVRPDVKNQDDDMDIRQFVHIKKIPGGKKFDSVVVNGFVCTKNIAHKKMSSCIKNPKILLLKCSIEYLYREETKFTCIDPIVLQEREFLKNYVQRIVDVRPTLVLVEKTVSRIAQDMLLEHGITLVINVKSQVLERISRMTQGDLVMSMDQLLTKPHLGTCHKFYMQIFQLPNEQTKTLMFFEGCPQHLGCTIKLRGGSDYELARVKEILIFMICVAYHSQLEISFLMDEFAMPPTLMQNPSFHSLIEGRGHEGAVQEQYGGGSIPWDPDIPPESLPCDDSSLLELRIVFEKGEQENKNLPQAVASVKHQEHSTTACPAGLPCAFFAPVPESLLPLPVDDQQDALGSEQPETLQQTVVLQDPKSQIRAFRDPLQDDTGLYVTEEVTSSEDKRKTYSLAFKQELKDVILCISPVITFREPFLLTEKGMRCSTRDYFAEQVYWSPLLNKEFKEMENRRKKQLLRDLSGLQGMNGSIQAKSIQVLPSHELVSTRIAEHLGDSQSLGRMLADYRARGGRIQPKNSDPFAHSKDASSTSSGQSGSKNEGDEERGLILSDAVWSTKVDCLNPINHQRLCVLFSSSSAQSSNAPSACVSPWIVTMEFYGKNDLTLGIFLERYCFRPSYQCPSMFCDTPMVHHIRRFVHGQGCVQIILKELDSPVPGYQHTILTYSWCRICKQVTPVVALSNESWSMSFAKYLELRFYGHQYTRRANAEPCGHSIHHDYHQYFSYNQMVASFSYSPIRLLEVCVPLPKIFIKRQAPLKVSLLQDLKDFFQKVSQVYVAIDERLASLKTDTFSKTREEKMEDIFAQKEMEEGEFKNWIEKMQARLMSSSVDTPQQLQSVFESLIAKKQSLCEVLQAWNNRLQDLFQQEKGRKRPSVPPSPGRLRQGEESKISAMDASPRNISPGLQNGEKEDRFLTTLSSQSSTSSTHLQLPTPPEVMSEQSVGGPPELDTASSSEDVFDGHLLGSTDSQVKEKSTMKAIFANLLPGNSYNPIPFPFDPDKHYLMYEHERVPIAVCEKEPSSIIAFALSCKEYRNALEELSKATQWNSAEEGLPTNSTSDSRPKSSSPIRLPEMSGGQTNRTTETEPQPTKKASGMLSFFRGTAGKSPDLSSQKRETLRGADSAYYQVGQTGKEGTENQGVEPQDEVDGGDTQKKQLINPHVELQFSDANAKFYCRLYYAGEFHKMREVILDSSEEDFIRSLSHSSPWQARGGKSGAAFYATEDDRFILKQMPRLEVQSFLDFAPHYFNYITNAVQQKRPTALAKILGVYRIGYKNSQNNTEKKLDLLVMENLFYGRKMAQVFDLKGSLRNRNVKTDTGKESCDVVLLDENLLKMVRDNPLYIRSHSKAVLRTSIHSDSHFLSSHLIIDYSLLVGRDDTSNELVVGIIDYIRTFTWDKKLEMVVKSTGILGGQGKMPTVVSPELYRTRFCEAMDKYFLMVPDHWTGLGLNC

Compound	IC50
COc1ccc(-c2nc(N3CCOCC3)nc(Nc3cccnc3)c2OC)cc1OC [Compound 22]	1 to 10 µM
COc1c(Nc2cccnc2)nc(N2CCOCC2)nc1-c1cccc(-c2ccn(C)n2)c1 [Compound 20, 5-methoxy-6-(3-(1-methyl-1H-pyrazol-3-yl)phenyl)-2-morpholino-N-(pyridin-3-yl)pyrimidin-4-amine]	0.1 to 1 µM
COc1c(Nc2ccncc2)nc(N2CCOCC2)nc1-c1cccc(-n2ccc(C)n2)c1 [Compound 9]	0.01 to 0.1 µM
COc1c(Nc2ccncc2)nc(N2CCOC[C@H]2CO)nc1-c1cccc(-c2ccn(C)n2)c1 [Compound 43]	1 to 10 µM
Cn1ccc(-c2cccc(-c3nc(N4CCOCC4)nc(Nc4cccnc4)c3[S+](C)[O-])c2)n1 (centres unmarked) [Compound 59]	1 to 10 µM
COc1c(NCc2cccnc2)nc(-c2cccc(-c3ccn(C)n3)c2)nc1-c1ccncc1 [Compound 63, 5-methoxy-2-(3-(1-methyl-1H-pyrazol-3-yl)phenyl)-N-(pyridin-3-ylmethyl)-6-(pyridin-4-yl)pyrimidin-4-amine]	1 to 10 µM
Cn1ccc(-c2ccc3[nH]c(=O)c4c(Nc5ccncc5)nc(N5CCOCC5)nc4c3c2)n1 [Compound 72, 9-(1-methylpyrazol-3-yl)-2-morpholino-4-(4-pyridylamino)-6H-pyrimido[5,4-c]quinolin-one]	0.01 to 0.1 µM
COc1c(Nc2cccnc2)nc(N2CCOCC2)nc1-c1cccc(N2CCC(O)C2)c1 (centres unmarked) [Compound 26, 1-(3-(5-methoxy-2-morpholino-6-(pyridin-3-ylamino)pyrimidin-4-yl)phenyl)pyrrolidin-3-ol]	1 to 10 µM
COc1cc(-c2nc(N3CCOCC3)nc(Nc3cccnc3)c2OC)cnc1OC [Compound 18, 6-(5,6-dimethoxypyridin-3-yl)-5-methoxy-2-morpholino-N-(pyridin-3-yl)pyrimidin-4-amine]	1 to 10 µM
COc1c(Nc2cccnc2)nc(N2CCOCC2)nc1-c1cccc(-c2cccnn2)c1 [Compound 21]	1 to 10 µM
COc1c(-c2cccc(-n3cccn3)c2)nc(N2CCN(C)C(=O)C2)nc1N1CCOCC1 [Compound 37, 4-[5-methoxy-4-morpholino-6-(3-pyrazol-1-ylphenyl)pyrimidin-2-yl]-1-methyl-piperazin-2-one]	1 to 10 µM
COc1ccc(-c2nc(N3CCOCC3)nc(Nc3ccncc3)c2OC)nc1OC [Compound 51, 6-(5,6-dimethoxypyridin-2-yl)-5-methoxy-2-morpholino-N-(pyridin-4-yl)pyrimidin-4-amine]	0.1 to 1 µM
Cn1ccc(-c2cccc(-c3nc(N4CCOCC4)nc(Nc4ccncc4)c3C(=O)N3CCC3)c2)n1 [Compound 68]	0.01 to 0.1 µM
COc1c(Nc2cccnc2)nc(N2CCOCC2)nc1-c1cccc(N2CCOCC2=O)c1 [Compound 28, 4-(3-(5-methoxy-2-morpholino-6-(pyridin-3-ylamino)pyrimidin-4-yl)phenyl)morpholin-3-one]	1 to 10 µM
Cn1ccc(-c2cccc(-c3nc(N4CCOCC4)nc(Nc4cccnc4)c3P(C)(C)=O)c2)n1 [Compound 45, dimethyl(4-(3-(1-methyl-1H-pyrazol-3-yl)phenyl)-2-morpholino-6-(pyridin-3-ylamino)pyrimidin-6-yl)phosphine oxide]	1 to 10 µM
COc1c(Nc2ccncc2)nc(N2CCOCC2)nc1-c1cccc(N2CCC(O)CC2)c1 [Compound 48, 1-(3-(5-methoxy-2-morpholino-6-(pyridin-4-ylamino)pyrimidin-4-yl)phenyl)piperidin-4-ol]	0.1 to 1 µM
COc1c(Nc2cccnc2)nc(N2CCOCC2)nc1-c1cccc(N2CCCC2=O)c1 [Compound 29, 1-(3-(5-methoxy-2-morpholino-6-(pyridin-3-ylamino)pyrimidin-4-yl)phenyl)pyrrolidin-2-one]	1 to 10 µM

Continued, values first:

IC50	Compound
1 to 10 µM	COc1c(Nc2ccncc2)nc(OC[C@H]2COCCN2)nc1-c1cccc(-c2ccn(C)n2)c1 [Compound 42, (R)-5-methoxy-6-(3-(1-methyl-1H-pyrazol-3-yl)phenyl)-2-(morpholin-3-ylmethoxy)-N-(pyridin-4-yl)pyrimidin-4-amine]
1 to 10 µM	CN1CCCC(Oc2nc(N3CCOCC3)nc3c2OCc2cc(-c4ccccc4)nn2-3)C1 (centres unmarked) [Compound 35, 4-((1-methylpiperidin-3-yl)oxy)-2-morpholino-8-phenyl-6H-pyrazolo[1,5-d]pyrimido[5,4-b][1,4]oxazine]
1 to 10 µM	CN(C)C(=O)c1c(Nc2cccnc2)nc(N2CCOCC2)nc1-c1cccc(-n2cccn2)c1 [Compound 69]
1 to 10 µM	COc1c(N2CCOCC2)nc(-c2cccc(-n3cccn3)c2)nc1N1CCN(C)C(=O)C1 [Compound 36]
0.1 to 1 µM	COc1c(Nc2ccncc2)nc(N2CCOCC2)nc1-c1ccnc(-c2ccn(C)n2)n1 [Compound 56, 5-methoxy-2′-(I-methyl-1H-pyrazol-3-yl)-2-morpholino-N-(pyridin-4-yl)-4,4′-bipyrimidin-4-amine]
1 to 10 µM	COc1c(OCCc2ccccn2)nc(-c2cccc(-c3ccn(C)n3)c2)nc1N1CCOCC1 [Compound 4]
0.01 to 0.1 µM	COc1c(Nc2ccncc2)nc(N2CCOCC2)nc1-c1cccc(-c2ccn(C)n2)c1 [Compound 3, 5-methoxy-6-(3-(1-methyl-1H-pyrazol-3-yl)phenyl)-2-morpholino-N-(pyridin-4-yl)pyrimidin-4-amine]
1 to 10 µM	COc1c(Nc2cccnc2)nc(N2CCOCC2)nc1-c1cccc(C#N)c1 [Compound 23, 3-(5-methoxy-2-morpholino-6-(pyridin-3-ylamino)pyrimidin-4-yl)benzonitrile]
0.1 to 1 µM	Cn1ccc(-c2ccc3c(c2)c2nc(N4CCOCC4)nc(Nc4ccncc4)c2c(=O)n3C)n1 [Compound 71, 6-methyl-9-(1-methylpyrazol-3-yl)-2-morpholino-4-(4-pyridylamino)pyrimido[5,4-c]quinolin-one]
0.1 to 1 µM	COc1c(-c2cccc(-c3ccn(C)n3)c2)nc(N2CCOCC2)nc1-c1ccc2ncccc2c1 [Compound 58, 4-(5-methoxy-4-(3-(1-methyl-1H-pyrazol-3-yl)phenyl)-6-(quinolin-6-yl)pyrimidin-2-yl)morpholine]
0.01 to 0.1 µM	COc1c(Nc2cccnc2)nc(-c2ccncc2)nc1-c1cccc(-c2ccn(C)n2)c1 [Compound 34, 5-methoxy-6-(3-(1-methyl-H-pyrazol-3-yl)phenyl)-N-(pyridin-3-yl)-2-(pyridin-4-yl)pyrimidin-4-amine]
1 to 10 µM	O=c1[nH]c2ccc(-n3cccn3)cc2c2nc(N3CCOCC3)nc(Nc3ccncc3)c12 [Compound 64, 2-morpholino-9-pyrazol-1-yl-4-(4-pyridylamino)-6H-pyrimido[5,4-c]quinolin-5-one]
1 to 10 µM	COc1c(-c2cccc(-c3ccn(C)n3)c2)nc(N2CCOCC2)nc1-c1cnn(C)c1 [Compound 52, 4-(5-methoxy-4-(3-(1-methyl-1H-pyrazol-3-yl)phenyl)-6-(1-methyl-1H-pyrazol-4-yl)pyrimidin-2-yl)morpholine]
1 to 10 µM	COc1c(-c2cccc(-c3ccn(C)n3)c2)nc(N2CCOCC2)nc1N1CCN(C)C(=O)C1 [Compound 60, 4-(5-methoxy-6-(3-(1-methyl-1H-pyrazol-3-yl)phenyl)-2-morpholinopyrimidin-4-yl)-1-methylpiperazin-2-one]
1 to 10 µM	Cn1ccc(-c2cccc(-c3nc(N4CCOCC4)nc(Nc4cc[n+](C)cc4)c3-c3ncco3)c2)n1 [Compound 73]
1 to 10 µM	COc1c(Nc2cccnc2)nc(N2CCOCC2)nc1-c1cccc(N2CCN(C)C(=O)C2)c1 [Compound 27, 4-(3-(5-methoxy-2-morpholino-6-(pyridin-3-ylamino)pyrimidin-4-yl)phenyl)-1-methylpiperazin-2-one]
1 to 10 µM	COc1c(Nc2cccnc2)nc(N2CCOCC2)nc1-c1cccc(N2CCC(O)CC2)c1 [Compound 55, 1-(3-(5-methoxy-2-morpholino-6-(pyridin-3-ylamino)pyrimidin-4-yl)phenyl)piperidin-4-ol]
0.1 to 1 µM	Clc1c(Nc2ccncc2)nc(N2CCOCC2)nc1-c1cccc(-n2cccn2)c1 [Compound 50, 6-(3-(1H-pyrazol-1-yl)phenyl)-5-chloro-2-morpholino-N-(pyridin-4-yl)pyrimidin-4-amine]
0.01 to 0.1 µM	COc1c(Nc2ccncc2)nc(N2CCOCC2)nc1-c1cccc(-c2ncco2)c1 [Compound 54, 5-methoxy-2-morpholino-6-(3-(oxazol-2-yl)phenyl)-N-(pyridin-4-yl)pyrimidin-4-amine]
1 to 10 µM	COc1c(Nc2cccnc2)nc(N2CCOCC2)nc1-c1cccc(C(=O)N(C)C)c1 [Compound 24]
1 to 10 µM	CN(C)C(=O)c1c(Nc2ccncc2)nc(N2CCOCC2)nc1-c1cccc(C#N)c1 [Compound 67]
0.1 to 1 µM	COc1c(Nc2cccnc2)nc(N2CCOCC2)nc1-c1ccnc(-c2ccn(C)n2)c1 [Compound 25, 5-methoxy-6-(2-(1-methyl-1H-pyrazol-3-yl)pyridin-4-yl)-2-morpholino-N-(pyridin-3-yl)pyrimidin-4-amine]
1 to 10 µM	COc1c(-c2cccc(-n3cccn3)c2)nc(N2CCOCC2)nc1-c1nc(-c2ccccc2)c[nH]1 [Compound 61, 4-(4-(3-(1H-pyrazol-1-yl)phenyl)-6-methoxy-6-(4-phenyl-1H-imidazol-2-yl)pyrimidin-2-yl)morpholine]
1 to 10 µM	COc1c(-c2cccc(-c3ccn(C)n3)c2)nc(OCCc2ccccn2)nc1N1CCOCC1 [Compound 5, 4-(5-methoxy-6-(3-(1-methyl-H-pyrazol-3-yl)phenyl)-2-(2-(pyridin-2-yl)ethoxy)pyrimidin-4-yl)morpholine]
